Assay results taken from patent US7632918B2, “Semi-synthetic glycopeptides with antibiotic activity” (Novartis Vaccines and Diagnostics, Inc., priority 2005, dated 2009).
≈ marks a conversion by molar mass, not a printed value.

Legend:
Assay in all cases: MIC, broth microdilution in Meuller-Hinton broth (NCCLS)
533 S. epidermidis = assay type: cell-based, Staphylococus epidermidis; conditions: clinical isolate
Procedure: (§1) Antibacterial activity in vitro was investigated by broth microdilution method in Meuller-Hinton broth as recommended by NCCLS. All strains tested were clinical isolates either sensitive or resistant to natural glycopeptides. Results are reported in the tables as MIC (minimal inhibitory concentration) in μg/ml.
(§2) The glycopeptides were tested against a variety of strains, indicated below, including Staphylococus epidermidis, Staphylococus haemolyticus, glycopeptides-intermediate Staphylococus aureus (GISA), glocopeptide-sensitive Enterococcus faecalis (GSE), and glocopeptide-resistant Enterococcus faecalis (GRE). Results are shown in the table as minimum inhibitory concentration (MIC) in units of μg/ml: […]

602 S. haemolyticus = assay type: cell-based, Staphylococus haemolyticus; conditions: clinical isolate
Procedure: as §1, §2

3797 S. aureus (GISA) = assay type: cell-based, Staphylococus aureus; conditions: glycopeptides-intermediate clinical isolate
Procedure: as §1, §2

3798 S. aureus (GISA) = assay type: cell-based, Staphylococus aureus; conditions: glycopeptides-intermediate clinical isolate
Procedure: as §1, §2

568 E. faecium (GSE) = assay type: cell-based; conditions: glycopeptide-sensitive clinical isolate
Procedure: as §1, §2

569 E. faecium (GRE) = assay type: cell-based; conditions: glycopeptide-resistant clinical isolate
Procedure: as §1, §2

559 E. faecalis (GSE) = assay type: cell-based, Enterococcus faecalis; conditions: glycopeptide-sensitive clinical isolate
Procedure: as §1, §2

560 E. faecalis (GRE) = assay type: cell-based, Enterococcus faecalis; conditions: glycopeptide-resistant clinical isolate
Procedure: as §1, §2

Row | Structure (SMILES) | MIC 533 S. epidermidis (533 S. epidermidis) | MIC 602 S. haemolyticus (602 S. haemolyticus) | MIC 3797 S. aureus (GISA) (3797 S. aureus (GISA)) | MIC 3798 S. aureus (GISA) (3798 S. aureus (GISA)) | MIC 568 E. faecium (GSE) (568 E. faecium (GSE)) | MIC 569 E. faecium (GRE) (569 E. faecium (GRE)) | MIC 559 E. faecalis (GSE) (559 E. faecalis (GSE)) | MIC 560 E. faecalis (GRE) (560 E. faecalis (GRE))
1 | CCCCc1ccc(CNCC(=O)NC2(C)CC(OC3C(Oc4c5cc6cc4Oc4ccc(cc4Cl)C(O)C(NC(=O)C(CC(C)C)NC)C(=O)NC(CC(N)=O)C(=O)NC6C(=O)NC4C(=O)NC(C(=O)NC(C(=O)NC)c6cc(O)cc(O)c6-c6cc4ccc6O)C(OC4CC(C)(N)C(O)C(C)O4)c4ccc(cc4)O5)OC(CO)C(O)C3O)OC(C)C2O)cc1 (stereo not drawn) [Compound 77] | 1 µg/mL (≈ 0.564 µM) | 2 µg/mL (≈ 1.13 µM) | 2 µg/mL (≈ 1.13 µM) | 2 µg/mL (≈ 1.13 µM) | 2 µg/mL (≈ 1.13 µM) | 8 µg/mL (≈ 4.51 µM) | 2 µg/mL (≈ 1.13 µM) | 8 µg/mL (≈ 4.51 µM)
2 | CCCCc1ccc(CNCC(=O)NC2(C)CC(OC3C(Oc4c5cc6cc4Oc4ccc(cc4Cl)C(O)C4NC(=O)C(NC(=O)C6NC(=O)C(CC(N)=O)NC(=O)C(NC(=O)C(CC(C)C)NC)C(O)c6ccc(c(Cl)c6)O5)c5ccc(O)c(c5)-c5c(O)cc(O)cc5C(C(=O)O)NC4=O)OC(CO)C(O)C3O)OC(C)C2O)cc1 (stereo not drawn) [Compound 182] | 0.25 µg/mL (≈ 0.151 µM) | 0.5 µg/mL (≈ 0.303 µM) | 2 µg/mL (≈ 1.21 µM) | 2 µg/mL (≈ 1.21 µM) | 0.5 µg/mL (≈ 0.303 µM) | 32 µg/mL (≈ 19.4 µM) | 1 µg/mL (≈ 0.605 µM) | 32 µg/mL (≈ 19.4 µM)
3 | CCCCCCCCCC(=O)NCC(=O)NC1(C)CC(OC2C(Oc3c4cc5cc3Oc3ccc(cc3Cl)C(O)C(NC(=O)C(CC(C)C)NC)C(=O)NC(CC(N)=O)C(=O)NC5C(=O)NC3C(=O)NC(C(=O)NC(C(=O)O)c5cc(O)cc(O)c5-c5cc3ccc5O)C(OC3CC(C)(N)C(O)C(C)O3)c3ccc(cc3)O4)OC(CO)C(O)C2O)OC(C)C1O (stereo not drawn) [Compound 186] | 2 µg/mL (≈ 1.13 µM) | 2 µg/mL (≈ 1.13 µM) | 16 µg/mL (≈ 9.04 µM) | 16 µg/mL (≈ 9.04 µM) | 1 µg/mL (≈ 0.565 µM) | >64 µg/mL | 2 µg/mL (≈ 1.13 µM) | >64 µg/mL
4 | CCCCN(CCCC)c1ccc(CNCC(=O)NC2(C)CC(OC3C(Oc4c5cc6cc4Oc4ccc(cc4Cl)C(O)C(NC(=O)C(CC(C)C)NC)C(=O)NC(CC(N)=O)C(=O)NC6C(=O)NC4C(=O)NC(C(=O)NC(C(=O)O)c6cc(O)cc(O)c6-c6cc4ccc6O)C(OC4CC(C)(N)C(O)C(C)O4)c4ccc(cc4)O5)OC(CO)C(O)C3O)OC(C)C2O)cc1 (stereo not drawn) [Compound 187] | 1 µg/mL (≈ 0.546 µM) | 1 µg/mL (≈ 0.546 µM) | 8 µg/mL (≈ 4.37 µM) | 8 µg/mL (≈ 4.37 µM) | 1 µg/mL (≈ 0.546 µM) | 32 µg/mL (≈ 17.5 µM) | 2 µg/mL (≈ 1.09 µM) | 32 µg/mL (≈ 17.5 µM)
5 | CCCCOc1ccc(CNCC(=O)NC2(C)CC(OC3C(Oc4c5cc6cc4Oc4ccc(cc4Cl)C(O)C(NC(=O)C(CC(C)C)NC)C(=O)NC(CC(N)=O)C(=O)NC6C(=O)NC4C(=O)NC(C(=O)NC(C(=O)O)c6cc(O)cc(O)c6-c6cc4ccc6O)C(OC4CC(C)(N)C(O)C(C)O4)c4ccc(cc4)O5)OC(CO)C(O)C3O)OC(C)C2O)cc1 (stereo not drawn) [Compound 193] | 0.5 µg/mL (≈ 0.281 µM) | 1 µg/mL (≈ 0.563 µM) | 4 µg/mL (≈ 2.25 µM) | 4 µg/mL (≈ 2.25 µM) | 1 µg/mL (≈ 0.563 µM) | 64 µg/mL (≈ 36 µM) | 2 µg/mL (≈ 1.13 µM) | 64 µg/mL (≈ 36 µM)
6 | CCCCCCCCCCN(CCCCCCCCCC)CC(=O)NC1(C)CC(OC2C(Oc3c4cc5cc3Oc3ccc(cc3Cl)C(O)C(NC(=O)C(CC(C)C)NC)C(=O)NC(CC(N)=O)C(=O)NC5C(=O)NC3C(=O)NC(C(=O)NC(C(=O)O)c5cc(O)cc(O)c5-c5cc3ccc5O)C(OC3CC(C)(N)C(O)C(C)O3)c3ccc(cc3)O4)OC(CO)C(O)C2O)OC(C)C1O (stereo not drawn) [Compound 194] | 2 µg/mL (≈ 1.06 µM) | 2 µg/mL (≈ 1.06 µM) | 8 µg/mL (≈ 4.22 µM) | 8 µg/mL (≈ 4.22 µM) | 2 µg/mL (≈ 1.06 µM) | 8 µg/mL (≈ 4.22 µM) | 4 µg/mL (≈ 2.11 µM) | 16 µg/mL (≈ 8.44 µM)
7 | CNC(CC(C)C)C(=O)NC1C(=O)NC(CC(N)=O)C(=O)NC2C(=O)NC3C(=O)NC(C(=O)NC(C(=O)O)c4cc(O)cc(O)c4-c4cc3ccc4O)C(OC3CC(C)(N)C(O)C(C)O3)c3ccc(cc3)Oc3cc2cc(c3OC2OC(CO)C(O)C(O)C2OC2CC(C)(NC(=O)C(N)CCCCN)C(O)C(C)O2)Oc2ccc(cc2Cl)C1O (stereo not drawn) [Compound 203] | 0.13 µg/mL (≈ 0.0771 µM) | 0.13 µg/mL (≈ 0.0771 µM) | 4 µg/mL (≈ 2.37 µM) | 8 µg/mL (≈ 4.74 µM) | 0.25 µg/mL (≈ 0.148 µM) | 16 µg/mL (≈ 9.49 µM) | 0.25 µg/mL (≈ 0.148 µM) | >64 µg/mL
8 | CNC(CC(C)C)C(=O)NC1C(=O)NC(CC(N)=O)C(=O)NC2C(=O)NC3C(=O)NC(C(=O)NC(C(=O)O)c4cc(O)cc(O)c4-c4cc3ccc4O)C(O)c3ccc(c(Cl)c3)Oc3cc2cc(c3OC2OC(CO)C(O)C(O)C2OC2CC(C)(NC(=O)CNCc3ccc(-c4ccc(Cl)cc4)cc3)C(O)C(C)O2)Oc2ccc(cc2Cl)C1O (stereo not drawn) [Compound 210] | 0.13 µg/mL (≈ 0.0762 µM) | 0.25 µg/mL (≈ 0.146 µM) | 1 µg/mL (≈ 0.586 µM) | 1 µg/mL (≈ 0.586 µM) | 0.25 µg/mL (≈ 0.146 µM) | 16 µg/mL (≈ 9.37 µM) | 0.5 µg/mL (≈ 0.293 µM) | 16 µg/mL (≈ 9.37 µM)
9 | CNC(CC(C)C)C(=O)NC1C(=O)NC(CC(N)=O)C(=O)NC2C(=O)NC3C(=O)NC(C(=O)NC(C(=O)NC4C5CC6CC(C5)CC4C6)c4cc(O)cc(O)c4-c4cc3ccc4O)C(OC3CC(C)(N)C(O)C(C)O3)c3ccc(cc3)Oc3cc2cc(c3OC2OC(CO)C(O)C(O)C2OC2CC(C)(N)C(O)C(C)O2)Oc2ccc(cc2Cl)C1O (stereo not drawn) [Compound 213, 2-adamantanamino eremomycin] | 0.25 µg/mL (≈ 0.148 µM) | 0.25 µg/mL (≈ 0.148 µM) | 1 µg/mL (≈ 0.591 µM) | 2 µg/mL (≈ 1.18 µM) | 0.5 µg/mL (≈ 0.296 µM) | 4 µg/mL (≈ 2.37 µM) | 0.5 µg/mL (≈ 0.296 µM) | 8 µg/mL (≈ 4.73 µM)
